The test system of data set [1] is L. major promastigote form. Description: In vitro antileishmanial activity, promastigote form. It is filed as cell-based, Leishmania major. As to conditions: read-out: Antipromastigotes IC50, µM ± SD. The method, then: All synthesised compounds were evaluated against L. major promastigote form.
(§1) We used both promastigote and amastigote forms of L. major strain for the in vitro evaluation. All experimental steps were carried out as reported earlier[35]^,[36]. The value of the compound concentration causing 50% inhibition (IC50) was calculated. The software employed is Graph Pad Prism 6 software (GraphPad Software, San Diego, CA, USA).

Data set [2] concerns L. major axenic amastigote form. Description: In vitro antileishmanial activity, axenic amastigote form. It is filed as cell-based, Leishmania major. The method, then: as §1
Data set [3] has as its system promastigote. Also noted: method as in PMID 27503653. The following applies: read-out: Anti-promastigote EC50; cited from earlier work.
Data set [4] relates to amastigote. Also noted: method as in PMID 27503653. As to conditions: read-out: Anti-amastigote EC50; cited from earlier work.
The subject of data set [5] is bisubunit DNA topoisomerase IB of L. donovani. Also noted: method as in PMID 27503653. The following applies: cited from earlier work.
The test system of data set [6] is L. major promastigote (folate pathway, DHFR and PTR1). Description: Reversal of antileishmanial activity by folic acid and folinic acid (folate pathway inhibition). In kind it is cell-based, Leishmania major. As to conditions: for Percentage survival, Folic acid 100 µM / Percentage survival, No Cpd added: test compound above its IC50 (trimethoprim 100 µM); for Percentage survival, No Cpd added: no folic or folinic acid; for Percentage survival, Folic acid 20µM: test compound above its IC50, folic acid 20µM; for Percentage survival, Folinic acid 20 µM: test compound above its IC50, folinic acid 20 µM; for Percentage survival, Folinic acid 100 µM: test compound above its IC50, folinic acid 100 µM. The procedure:
It is worthy to mention that folic acid competes for the active sites of both DHFR and PTR1 while folinic acid involves in DNA synthesis without any necessity to undergo activation.
This experiment was performed on the in vitro growth assay for the promastigote and based on the previously published methodology. All experimental steps were performed as reported earlier.

A short description of data set [7]: In vitro cytotoxicity testing on VERO cells. The following applies: African green monkey.
Data set [8] concerns VERO cells. Description: In vitro cytotoxicity testing on VERO cells. As to conditions: for SI (selectivity index; SI = CC50/IC50): CC50 VERO cells / antileishmanial IC50; for CC50 (VERO cells) higher than IC50 (promastigotes): VERO cells versus promastigotes of leishmania parasite.
The test system of data set [9] is Leishmania. Also on record: method as in PMID 34311084. The following applies: cited from earlier work.
Where [10] appears, read: Leishmania major, L. major promastigote, 50% growth inhibition.
Where [11] appears, read: Leishmania major, L. major axenic amastigote, 50% growth inhibition, read-out: Antiamastigote IC50, µM ± SD.
Setting [12] is: VERO cells (African green monkey kidney cells).
Setting [13] is: Leishmania major, read-out: Antiamastigote IC50, µM ± SD, L. major axenic amastigote, 50% growth inhibition.

“And” between values parts separate entries of the source, which are not always exact repeats. Identical values can stand only once. Like-named read-outs stand apart in the source and are kept apart here.

A word on the IC50: it is the concentration needed to halve the response being measured. In general, melting point refers to the temperature of the solid-liquid transition. On to `N=C1N(c2ccccc2)C(=S)N(c2ccccc2)C12CC(c1ccccc1)N(Cc1ccccc1)C(c1ccccc1)C2` (stereo not drawn) [Compound 11b, 8-Benzyl-4-imino-1,3,7,9-tetraphenyl-1,3,8-triazaspiro[4.5]decane-2-thione], for which the melting point lay within 168 to 170 °C. The half-maximal inhibitory concentration (IC50) in data set [1] (setting [10]) amounted to 3.27 ± 0.32 µM. In [2] (setting [11]), the IC50 came to 4.89 ± 0.34 µM.

As usually defined, the EC50 is the concentration that produces a half-maximal response. With `COC(=O)C1CC2CCCN2C12C(=O)N(Cc1ccccc1)c1ccccc12` (stereo not drawn) [B], the EC50 is 1.24 to 1.41 µM in [3] and 0.53 to 0.9 µM in data set [4]. In data set [5], the “inhibition of bisubunit DNA topoisomerase IB” value is given as “catalytic inhibitor”.

What is called CC50 is the concentration that lowers cell viability or growth by half. Molecule `O=C1NC(=O)C2(CC(c3ccccc3)N(Cc3ccccc3)C(c3ccccc3)C2)N1c1ccccc1` (stereo not drawn) [Compound 8a, 8-Benzyl-1,7,9-triphenyl-1,3,8-triazaspiro[4.5]decane-2,4-dione] displayed a melting point of 188 to 190 °C. In [1] (setting [10]), the IC50 is 1.12 ± 0.12 µM. The IC50 in [2] (Leishmania major, IC50 used for the selectivity index in Table 4, read-out: Antileishmanial IC50) is 0.895 µM. Also, in data set [2] (setting [11]), the IC50 was determined as 0.89 µM. In addition, in data set [6], the “Percentage survival, Folic acid 100 µM” value was determined as 81%; the “Percentage survival, No Cpd added” value is 20%; the “Percentage survival, Folic acid 20µM” value came to 72%; the “Percentage survival, Folinic acid 20 µM” value was determined as 76%. In addition, in [6], the “Percentage survival, Folinic acid 100 µM” value worked out at 87%. Besides, the half-maximal cytotoxic concentration (CC50) at 72 h in data set [7] (setting [12]) is 62.5 µg/mL and 128 µM. Besides, in data set [8], the “SI (selectivity index; SI = CC50/IC50)” value turned out to be 143.38 and the “CC50 (VERO cells) higher than IC50 (promastigotes)” value is “at least 2 orders of magnitude”.

For `O=C1NCC2(CC(c3ccccc3)N(Cc3ccccc3)C(c3ccccc3)C2)N1c1ccccc1` (stereo not drawn) [Compound 5a, 8-Benzyl-1,7,9-triphenyl-1,3,8-triazaspiro[4.5]decan-2-one], the melting point was in the range of 128 to 130 °C. In addition, the IC50 in data set [1] (setting [10]) was determined as 5.4 ± 0.24 µM. In addition, the IC50 in data set [2] (setting [11]) turned out to be 5.45 ± 0.22 µM.

Consider `CCCCCCCCCCCCCCCCOP(=O)([O-])OCC[N+](C)(C)C` [Miltefosine, reference compound], for which the IC50 turned out to be 7.9 ± 0.28 µM in data set [1] (L. major promastigote, 50% growth inhibition); 7.89 µM in data set [1] (setting [10]); 8.08 ± 0.24 µM in [2] (setting [11]). For the same molecule, the CC50 at 72 h in data set [7] (setting [12]) worked out at 99.7 µM. In data set [8], the “SI (selectivity index; SI = CC50/IC50)” value is given as 12.6.

The molecule `c1ccc(CN2C(c3ccccc3)CC3(CC2c2ccccc2)NCCN3)cc1` (stereo not drawn) [Compound 13, 8-Benzyl-7,9-diphenyl-1,4,8-triazaspiro[4.5]decane] came in with a melting point of 209 to 211 °C. Moreover, the IC50 in [1] (setting [10]) worked out at 1.34 ± 0.14 µM. The IC50 in data set [2] (setting [11]) was determined as 3.24 ± 0.22 µM.

For `COc1cc(Cc2cnc(N)nc2N)cc(OC)c1OC` [Trimethoprim, reference compound], in [6], the “Percentage survival, Folic acid 100 µM” value is 99% and the “Percentage survival, No Cpd added” value came out at 72%.

With `CN(C)c1ccc(/C=N/N2C(=O)C(C#N)=CC23c2ccccc2Nc2ccccc23)cc1` [C], the “Antileishmanial EC50” value in [9] is 0.97 mg/L.

Take `O=C1CNC(=O)C2(CC(c3ccccc3)N(Cc3ccccc3)C(c3ccccc3)C2)N1c1ccccc1` (stereo not drawn) [Compound 9a, 9-Benzyl-1,8,10-triphenyl-1,4,9-triazaspiro[5.5]undecane-2,5-dione]: the melting point lay in the range of 201 to 203 °C. Further, the IC50 in data set [1] (Leishmania major) was 0.41 ± 0.04 µM. Besides, the IC50 in data set [2] (setting [13]) stood at 0.5 µM. In addition, the IC50 in data set [2] (Leishmania major, read-out: Antileishmanial IC50 µM, IC50 used for the selectivity index in Table 4) stood at 0.501 µM. Further, in [2] (read-out: Antiamastigote IC50, µM ± SD, L. major axenic amastigote, 50% growth inhibition), the IC50 amounted to 0.501 ± 0.16 µM. In [6], the “Percentage survival, Folic acid 100 µM” value came out at 84%; the “Percentage survival, No Cpd added” value turned out to be 26%; the “Percentage survival, Folic acid 20µM” value was found to be 76%; the “Percentage survival, Folinic acid 20 µM” value was determined as 80%. Besides, the “Percentage survival, Folinic acid 100 µM” value in data set [6] is 92%. Moreover, the CC50 at 72 h in data set [7] is 125 µg/mL and 249 µM. In addition, in data set [8], the “SI (selectivity index; SI = CC50/IC50)” value is 497.37 and the “CC50 (VERO cells) higher than IC50 (promastigotes)” value is recorded as “at least 2 orders of magnitude”.

Molecule `N=C1N(c2ccccc2)C(=O)N(c2ccccc2)C12CC(c1ccccc1)N(Cc1ccccc1)C(c1ccccc1)C2` (stereo not drawn) [Compound 11a, 8-Benzyl-4-imino-1,3,7,9-tetraphenyl-1,3,8-triazaspiro[4.5]decan-2-one] gave a melting point of 180 to 183 °C. Besides, the half-maximal inhibitory concentration (IC50) in [1] (setting [10]) came out at 2.44 ± 0.22 µM. In addition, in data set [2] (setting [11]), the IC50 worked out at 4.87 ± 0.32 µM.

As for `N#CC1=C(N)N(c2ccccc2)C2(CNC1c1ccccc1)CC(c1ccccc1)N(Cc1ccccc1)C(c1ccccc1)C2` (stereo not drawn) [Compound 7a, 8-Amino-3-benzyl-2,4,7,10-tetraphenyl-3,7,11-triazaspiro[5.6]dodec-8-ene-9-carbonitrile], the melting point was more than 300 °C.

For the molecule `N=C1NNC2(CC(c3ccccc3)N(Cc3ccccc3)C(c3ccccc3)C2)S1` (stereo not drawn) [Compound 12, 8-Benzyl-7,9-diphenyl-4-thia-1,2,8-triazaspiro[4.5]decan-3-imine], the figures for the IC50 in [1] (setting [10]) and in data set [2] (setting [11]) were 2.21 ± 0.22 µM and 3.43 ± 0.14 µM, respectively.

In the case of `O=C1CNCC2(CC(c3ccccc3)N(Cc3ccccc3)C(c3ccccc3)C2)N1c1ccccc1` (stereo not drawn) [Compound 6a, 9-Benzyl-1,8,10-triphenyl-1,4,9-triazaspiro[5.5]undecan-2-one], the melting point is 150 to 153 °C. Moreover, in data set [1] (Leishmania major), the IC50 is 4.42 ± 0.22 µM. The IC50 in data set [2] (setting [13]) was 4.67 ± 0.16 µM.

The record behind these values is PMC11003478, “Spiro heterocycles bearing piperidine moiety as potential scaffold for antileishmanial activity: synthesis, biological evaluation, and in silico studies” (Journal of Enzyme Inhibition and Medicinal Chemistry, 2022).
